Experimental data reported in publication PMC12081905, “Ortho-functionalization of a ^211At-labeled aryl compound provides stabilization of the C-At bond against oxidative dehalogenation” (Scientific Reports, 2025).

Key:
[1] = Stability assay in oxidizing/acidic medium (chemical oxidation assay, KMnO4); type: physicochemical; conditions: radio-HPLC
Method: Stability of ^211At-labeled compounds in oxidizing media. […] Adapted from Teze et al.[10], it consists in an incubation of the ^211At-labeled product in 50 mM acetate buffer (pH = 4.7) containing a 1 mM potassium permanganate solution (Fig. 5).
(§1) ^211At was produced at the Arronax cyclotron facility using the ^209Bi(α,2n) ^211At reaction and recovered from the irradiated target in chloroform using a dry distillation protocol adapted from the procedure previously reported by Lindegren et al.[26] Before use, the ^211At solution was reduced to dryness under a gentle stream of nitrogen. […] To quantify free astatine that remains trapped in the HPLC system during the elution, 50 µL of an aqueous sodium sulfite solution (10 mg mL^−1) were injected after each analysis to release free astatine from the HPLC system with the flow rate set at 1.20 mL/min with the following gradient: t = 0: 90% A, 10% B; t = 2–6 min: 100% B with A = H2O with 0.05% TFA and B = CH3CN with 0.05% TFA. The non-radioactive iodinated compounds were analyzed using this HPLC system and their retention times were used as references for identification of their astatinated analogues. […]
Each peak is then integrated, providing each peak area (noted A(A), A(B) etc…) to quantify the species present. […]

[2] = set-up: method as in PMID 28566709; conditions: DFT, resulting oxidized compounds; cited from earlier work
[3] = system: human liver microsomes (CYP450); experiment: Stability assay in human liver microsomal medium with NADPH regeneration system; type: in vitro ADME; conditions: 37 °C, radio-HPLC
From the text: (§2) Since oxidation by CYP450 enzymes is a plausible cause of oxidative deastatination within targeted cells or in the liver, we also assessed the stability of our compounds against liver microsomes. Liver microsomes contain CYP450, a family of oxidase enzymes that were used in our assay, adapted from Schmitt et al.[14] and using a nicotinamide adenine dinucleotide phosphate (NADPH) redox regeneration system to regenerate the redox properties of CYP450. For comparison, we performed the stability assay in rat and human liver microsomes (Fig. 7).
as §1, with “al.[26]” for “al.[26] Before use, the ^211At solution was reduced to dryness under a gentle stream of nitrogen.”

[4] = system: rat liver microsomes (CYP450); experiment: Stability assay in rat liver microsomal medium with NADPH regeneration system; type: in vitro ADME; conditions: 37 °C, radio-HPLC
From the text: as §2
as §1, with “al.[26]” for “al.[26] Before use, the ^211At solution was reduced to dryness under a gentle stream of nitrogen.”

SMILES: OCc1ccccc1[211At] [compound 2, (2-[^211At]astatophenyl)methanol]
- free astatine (release of astatine) after 20 h incubation in oxidizing medium ([1]; 50 mM acetate buffer pH 4.7, 1 mM KMnO4, room temperature, 20 h, n = 3): 12%

SMILES: CCOC(=O)c1cccc([211At])c1 [compound 1, ethyl 3-[^211At]astatobenzoate]
- bond dissociation energy of the carbon-halogen bond [2]: 28.2 kcal mol^−1

SMILES: CCNC(=O)c1cccc([211At])c1 [[^211At]AEB, 3-[^211At]astato-N-ethylbenzamide]
- starting compound / metabolites after 20 h incubation in human microsomes [3]: practically no presence of the starting compound
- starting compound / metabolites after 20 h incubation in rat microsomes [4]: practically no presence of the starting compound
- fate of the starting 211At-compound in oxidizing medium ([1]; 50 mM acetate buffer pH 4.7, 1 mM KMnO4, up to 20 h): almost complete degradation
